# Data taken from PubChem BioAssay AID1963444 (Molecular Pharmacology Branch, DTP, NCI, 2024).
# Tested on: HSSY-II complex spheroid growth, percent test/control
# Assay: Anticancer human tumor HSSY-II cell line growth inhibition [Asc];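 note: spheroids exposed to drug for 7 days before reading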
# Settings: for IC50: curve of first compound; for viability, T/C: stronger effect = lower value
# Summary of the method: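 Stromal components (HUVEC and hMSC) are co-assembled with the cancer cells into multicellular spheroids. Drugs are then added singly or paired, at concentrations falling by half-log increments from a clinically achievable maximum, capped at 10 microM without known Cmax.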
# [1] = second compound 0.1 µM, first compound 0.00316 µM
# [2] = second compound 0.1 µM, first compound 0.01 µM
# [3] = second compound 0.1 µM, first compound 0.0316 µM
# [4] = second compound 0.1 µM, first compound 0.1 µM
# [5] = second compound 0.316 µM, first compound 0.00316 µM
# [6] = second compound 0.316 µM, first compound 0.01 µM
# [7] = second compound 0.316 µM, first compound 0.0316 µM
# [8] = second compound 0.316 µM, first compound 0.1 µM
# [9] = second compound 1 µM, first compound 0.00316 µM
# [10] = second compound 1 µM, first compound 0.01 µM
# [11] = second compound 1 µM, first compound 0.0316 µM
# [12] = second compound 1 µM, first compound 0.1 µM
# [13] = second compound 3.16 µM, first compound 0.00316 µM
# [14] = second compound 3.16 µM, first compound 0.01 µM
# [15] = second compound 3.16 µM, first compound 0.0316 µM
# [16] = second compound 3.16 µM, first compound 0.1 µM
# [17] = second compound 10 µM, first compound 0.00316 µM
# [18] = second compound 10 µM, first compound 0.01 µM
# [19] = second compound 10 µM, first compound 0.0316 µM
# [20] = second compound 10 µM, first compound 0.1 µM
structure (smiles),measurement,setting,value
COc1c(OCCCN2CCOCC2)ccc2c3n(c(=NC(=O)c4cnc(N)nc4)nc12)CCN3 + Cc1c(S(C)(=O)=O)c(-c2cc(F)cc(N3CCN(c4ccc(NS(=O)(=O)c5ccc(NC(CCN6CCC(C(=O)OCCCP(=O)(O)O)CC6)CSc6ccccc6)c(S(=O)(=O)C(F)(F)F)c5)cc4)CC3)c2)c(-c2ccc(Cl)cc2)n1C(C)C,IC50,second compound 0.1 µM,37.6 nM
same,IC50,second compound 0.316 µM,31.7 nM
same,IC50,second compound 1 µM,25.4 nM
same,IC50,second compound 3.16 µM,26.3 nM
same,IC50,second compound 10 µM,26.4 nM
same,"viability, T/C",[1],86.7%
same,"viability, T/C",[2],72.9%
same,"viability, T/C",[3],50.5%
same,"viability, T/C",[4],35.9%
same,"viability, T/C","second compound 0.1 µM, first compound 0.316 µM",20.9%
same,"viability, T/C","second compound 0.1 µM, first compound 1 µM",10.2%
same,"viability, T/C",[5],86.4%
same,"viability, T/C",[6],74.1%
same,"viability, T/C",[7],48.5%
same,"viability, T/C",[8],28.6%
same,"viability, T/C","second compound 0.316 µM, first compound 0.316 µM",19.6%
same,"viability, T/C","second compound 0.316 µM, first compound 1 µM",8.57%
same,"viability, T/C",[9],90.1%
same,"viability, T/C",[10],67%
same,"viability, T/C",[11],45%
same,"viability, T/C",[12],30.4%
same,"viability, T/C","second compound 1 µM, first compound 0.316 µM",17.7%
same,"viability, T/C","second compound 1 µM, first compound 1 µM",7.86%
same,"viability, T/C",[13],82.1%
same,"viability, T/C",[14],67.9%
same,"viability, T/C",[15],42.4%
same,"viability, T/C",[16],34.5%
same,"viability, T/C","second compound 3.16 µM, first compound 0.316 µM",16.2%
same,"viability, T/C","second compound 3.16 µM, first compound 1 µM",6.36%
same,"viability, T/C",[17],77.6%
same,"viability, T/C",[18],68.9%
same,"viability, T/C",[19],42.9%
same,"viability, T/C",[20],30.7%
same,"viability, T/C","second compound 10 µM, first compound 0.316 µM",16.4%
same,"viability, T/C","second compound 10 µM, first compound 1 µM",3.47%
NC(=O)C(=Cn1cnc(-c2cc(C(F)(F)F)cc(C(F)(F)F)c2)n1)c1cncnc1 + Cc1c(S(C)(=O)=O)c(-c2cc(F)cc(N3CCN(c4ccc(NS(=O)(=O)c5ccc(NC(CCN6CCC(C(=O)OCCCP(=O)(O)O)CC6)CSc6ccccc6)c(S(=O)(=O)C(F)(F)F)c5)cc4)CC3)c2)c(-c2ccc(Cl)cc2)n1C(C)C,IC50,second compound 0.1 µM,17.9 nM
same,IC50,second compound 0.316 µM,18.3 nM
same,IC50,second compound 1 µM,13.6 nM
same,IC50,second compound 3.16 µM,15.1 nM
same,IC50,second compound 10 µM,13.3 nM
same,"viability, T/C","second compound 0.1 µM, first compound 0.000949 µM",87.7%
same,"viability, T/C","second compound 0.1 µM, first compound 0.003 µM",86%
same,"viability, T/C","second compound 0.1 µM, first compound 0.00949 µM",65.4%
same,"viability, T/C","second compound 0.1 µM, first compound 0.03 µM",37.4%
same,"viability, T/C","second compound 0.1 µM, first compound 0.0949 µM",9.64%
same,"viability, T/C","second compound 0.1 µM, first compound 0.3 µM",0.51%
same,"viability, T/C","second compound 0.316 µM, first compound 0.000949 µM",99.8%
same,"viability, T/C","second compound 0.316 µM, first compound 0.003 µM",83.5%
same,"viability, T/C","second compound 0.316 µM, first compound 0.00949 µM",71.9%
same,"viability, T/C","second compound 0.316 µM, first compound 0.03 µM",36.1%
same,"viability, T/C","second compound 0.316 µM, first compound 0.0949 µM",6%
same,"viability, T/C","second compound 0.316 µM, first compound 0.3 µM",0.34%
same,"viability, T/C","second compound 1 µM, first compound 0.000949 µM",96.1%
same,"viability, T/C","second compound 1 µM, first compound 0.003 µM",80%
same,"viability, T/C","second compound 1 µM, first compound 0.00949 µM",61.3%
same,"viability, T/C","second compound 1 µM, first compound 0.03 µM",30%
same,"viability, T/C","second compound 1 µM, first compound 0.0949 µM",5.9%
same,"viability, T/C","second compound 1 µM, first compound 0.3 µM",0.23%
same,"viability, T/C","second compound 3.16 µM, first compound 0.000949 µM",91.1%
same,"viability, T/C","second compound 3.16 µM, first compound 0.003 µM",84.3%
same,"viability, T/C","second compound 3.16 µM, first compound 0.00949 µM",68.1%
same,"viability, T/C","second compound 3.16 µM, first compound 0.03 µM",24%
same,"viability, T/C","second compound 3.16 µM, first compound 0.0949 µM",2.17%
same,"viability, T/C","second compound 3.16 µM, first compound 0.3 µM",0.24%
same,"viability, T/C","second compound 10 µM, first compound 0.000949 µM",84.9%
same,"viability, T/C","second compound 10 µM, first compound 0.003 µM",89.6%
same,"viability, T/C","second compound 10 µM, first compound 0.00949 µM",56.5%
same,"viability, T/C","second compound 10 µM, first compound 0.03 µM",26.9%
same,"viability, T/C","second compound 10 µM, first compound 0.0949 µM",1.88%
same,"viability, T/C","second compound 10 µM, first compound 0.3 µM",0.28%
NC1CCC(NC2CC2c2ccccc2)CC1 (stereo not given) + Cc1c(S(C)(=O)=O)c(-c2cc(F)cc(N3CCN(c4ccc(NS(=O)(=O)c5ccc(NC(CCN6CCC(C(=O)OCCCP(=O)(O)O)CC6)CSc6ccccc6)c(S(=O)(=O)C(F)(F)F)c5)cc4)CC3)c2)c(-c2ccc(Cl)cc2)n1C(C)C,IC50,second compound 0.1 µM,> 100 nM
same,IC50,second compound 0.316 µM,> 100 nM
same,IC50,second compound 1 µM,> 100 nM
same,IC50,second compound 3.16 µM,> 100 nM
same,IC50,second compound 10 µM,> 100 nM
same,"viability, T/C","second compound 0.1 µM, first compound 0.000316 µM",58.9%
same,"viability, T/C","second compound 0.1 µM, first compound 0.001 µM",69.2%
same,"viability, T/C",[1],64%
same,"viability, T/C",[2],56.5%
same,"viability, T/C",[3],60.3%
same,"viability, T/C",[4],66.5%
same,"viability, T/C","second compound 0.316 µM, first compound 0.000316 µM",77%
same,"viability, T/C","second compound 0.316 µM, first compound 0.001 µM",67.3%
same,"viability, T/C",[5],58.9%
same,"viability, T/C",[6],60.6%
same,"viability, T/C",[7],60%
same,"viability, T/C",[8],64.5%
same,"viability, T/C","second compound 1 µM, first compound 0.000316 µM",70.3%
same,"viability, T/C","second compound 1 µM, first compound 0.001 µM",60.8%
same,"viability, T/C",[9],57.5%
same,"viability, T/C",[10],59%
same,"viability, T/C",[11],60.6%
same,"viability, T/C",[12],62.8%
same,"viability, T/C","second compound 3.16 µM, first compound 0.000316 µM",73.1%
same,"viability, T/C","second compound 3.16 µM, first compound 0.001 µM",62.1%
same,"viability, T/C",[13],60.8%
same,"viability, T/C",[14],61.1%
same,"viability, T/C",[15],59.9%
same,"viability, T/C",[16],61.4%
same,"viability, T/C","second compound 10 µM, first compound 0.000316 µM",66%
same,"viability, T/C","second compound 10 µM, first compound 0.001 µM",66.5%
same,"viability, T/C",[17],70.2%
same,"viability, T/C",[18],57.9%
same,"viability, T/C",[19],62.3%
same,"viability, T/C",[20],66.6%
